Experiments:
hERG channel = hERG channel (Homo sapiens, UniProt Q12809); assay: hERG voltage clamp assay in hERG-expressing cultured cells; type: cell-based; conditions: approximate, from voltage clamp data, read-out: concentration necessary to inhibit 50% of the tail currents mediated by hERG channels
[1] = tested on: gastric motility in canines; assay: Antral manometry (gastric motility) in canines; type: in vivo, canine (hound dogs)
Experimental: Two healthy female hound dogs (24-28 kg) were involved in this study. Animals were fed an ad libitum chow diet (LabDiet®). After an overnight fast, the dogs were anesthetized with Pentothal (sodium thiopental, 11 mg/kg IV; Abbott Laboratories, North Chicago, Ill.) and maintained on 2-4% isoflurane (Abbott Laboratories) in oxygen (1 L/min) carrier gases delivered from a ventilator after endotracheal intubation. A cannula was placed in the jejunum 20 cm distal to the pylorus for the assessment of antral motility. Dogs were allowed to recover in their individual cages for 2 weeks. All experiments were performed after the dogs were completely recovered from the surgical procedure. The study was performed according to the National Institutes of Health Guidelines on the use of laboratory animals and approved by the Animal Care and Use Committee of the University of Texas Medical Branch at Galveston, Tex. To investigate the effect of the drugs on antral manometry, the study of each drug dose was done on three randomized sessions on separate days following the consumption of one can of solid dog food: 1) a Control session: In which animals received the vehicle only; 2) Dose I session: in which the lower dose of the drug was used; and 3) Dose II session: in which the higher dose of the drug was used (please refer to table for drug doses). Drug administration was performed according to Table 4, below. Antral manometry was performed as follows. Following an overnight fast, an intraluminal water-perfused manometry catheter was inserted into the antrum through the jejunal cannula. Antral manometry recording was initiated after the consumption of one can of solid food and continued for 3 hours. The catheter contained 3 manometric sensors at a 1 cm interval. Dogs were given 10 minutes of accommodation, prior to the start of the recording. For data analysis, motility index (MI), defined as the integrated area (area under curve—AUC) between baseline and contractions per hour, was calculated. For statistical analysis, the Student's t-test was used for assessment of individual differences between groups (high dose, low dose of each drug) compared to control—Microsoft®Excel 2002). All values are expressed as mean±SEM. Significance was considered when p value was ≦0.05.

[2] = tested on: gastric emptying in Sprague-Dawley rats; assay: Solid gastric emptying in rodents; type: in vivo, rat
Experimental: The animals received a standard laboratory rat chow and tap water ad libitum. The rats were around 400 g at 14 weeks age when used in gastric emptying study. Drugs: S-Carbidopa was purchased from Sigma (#: C1335). Stock solution of S-Carbidopa was prepared at 5 mg/ml using DMSO as solvent. 80 μl stock solution was further diluted into 1 ml distilled water to make 0.4 mg/ml. The effect of S-Carbidopa (1 mg/kg) on solid gastric emptying was studied. Procedures: Male SD rats were involved in this study. Rats were fasted in cages with metal wired mesh for 24 hours with free access to water; S-carbidopa (1 mg/kg) was administered to the rats by oral gavage. Control rats were not administered S-carbidopa. 15 minutes following administration, rats were given access to 2 g of rat chow pellets for ten minutes. All rats completely ingested the chow within the 10 minute time frame. Rats were sacrificed by sodium pentobarbital (100 mg/kg) overdose 90 min after feeding. The stomach was surgically isolated and removed. Gastric contents were recovered from the stomach, air dried for 48 hours and then weighed. Solid gastric emptying was calculated according to the following formula: Gastric emptying (%)=[1−(dried gastric content in g)/2 g]×100. All values are expressed as mean±SEM.

5HT2 = assay: Radioligand binding affinity, 5HT2
α1 = assay: Radioligand binding affinity, α1
[3] = tested on: cardiac action potentials in dogs; assay: Canine cardiac action potentials by electrocardiography and telemetry; type: in vivo, dog; conditions: for QTc intervals: oral gavage, 1-6 hours post-dose, vs vehicle
Description: Surgical Implantation of the Telemetry Device and ECG Leads. Anesthesia is introduced to dogs. Balanced gaseous anesthesia is used throughout the surgical procedure. Once anesthetized, animals are shaved and surgically scrubbed, encompassing surgical sites of the right inguinal area, chest and right lateral abdomen. Throughout the surgical procedure, animals are monitored for continuous assessment of vital signs. An incision is made along the right medial thigh and the femoral artery exposed by blunt dissection. Another incision is made in the lateral lumbar area cranial to the iliac crest for a tunneling needle to be passed subcutaneously from the incision on the medial thigh to the lumbar incision. A blood pressure catheter is passed through the needle from the lumbar incision and the needle removed. The femoral artery is ligated distally and incised to insert a catheter that is advanced until the tip resided in the femoral artery/abdominal aorta. The catheter is then secured by ligation. The incision in the lumbar area is enlarged and a subcutaneous pocket created in the left dorsal lumbar area to hold the transmitter body. The transmitter (e.g., Data Sciences International, St Paul, Minn., USA) is inserted into the subcutaneous pocket and secured body. Electrocardiography (ECG) leads are positioned. The incision is closed. Postoperative recovery lasts, e.g., about 2 weeks during which supplemental analgesics/antibiotics are administered as needed. Once the postoperative recovery period is complete, the animal is examined for study acceptability by the staff veterinarian and the implanted transmitter signal verified.
Study Design. […] ECGs, heart rate and arterial blood pressure data are recorded 1 hour prior to and then continuously for at least 6 hours following compound and/or vehicle administration. A blood sample for determination of compound plasma concentrations is collected from all subjects at approximately 6 h post-dose.
ECG Analysis. An ECG waveform morphology assessment for the entire monitoring period is completed for each dog by a safety pharmacologist or veterinarian cardiologist. Standard ECG intervals (PR, RR, QRS and QT) are automatically measured by the data acquisition system and reported as, e.g., 10 min averages. The signals are collected with Data Sciences International Systems hardware. PR and QT manual overreads are conducted as appropriate. The manual measurements are completed from 50 mm s^−1 tracings at 30 min intervals. A mean of the three waveforms per time point are reported. QT intervals are corrected for heart rate (QTc) values by, e.g., using the formula by Funck-Bretano and Jaillon (1993).
Statistical Analysis. […] Dose-level averages (and accompanying standard deviation (s.d.) of these baseline-adjusted 10 min averages are calculated across study animals. ANOVA (e.g., repeated measures ANOVA) are applied to these baseline-adjusted averages. Pairwise t-tests are applied within the ANOVA to identify the presence of significant differences of the dose levels relative to vehicle. These t-tests are performed at a 0.05/2=0.025 significance level, so that the overall error rate across the comparisons in a given interval are not higher than 0.05. ECG interval data (reported at 30 min intervals) are analyzed using, e.g., repeated-measures ANOVA techniques similar to the systemic blood pressure and heart rate data described above.

D3 = D3 (Homo sapiens, UniProt P35462); assay: Radioligand binding affinity, D3
D3, sequence (P35462 whole entry): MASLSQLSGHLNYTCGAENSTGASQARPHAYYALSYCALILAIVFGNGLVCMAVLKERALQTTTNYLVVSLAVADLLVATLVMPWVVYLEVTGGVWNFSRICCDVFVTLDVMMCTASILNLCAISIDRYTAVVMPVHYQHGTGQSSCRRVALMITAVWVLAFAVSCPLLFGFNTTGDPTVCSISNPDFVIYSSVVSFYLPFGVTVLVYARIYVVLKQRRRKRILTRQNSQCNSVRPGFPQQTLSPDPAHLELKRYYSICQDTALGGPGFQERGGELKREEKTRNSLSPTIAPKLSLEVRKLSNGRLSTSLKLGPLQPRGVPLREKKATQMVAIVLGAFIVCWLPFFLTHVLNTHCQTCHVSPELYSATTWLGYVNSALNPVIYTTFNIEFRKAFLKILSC

hERG channel, sequence (Q12809 whole entry): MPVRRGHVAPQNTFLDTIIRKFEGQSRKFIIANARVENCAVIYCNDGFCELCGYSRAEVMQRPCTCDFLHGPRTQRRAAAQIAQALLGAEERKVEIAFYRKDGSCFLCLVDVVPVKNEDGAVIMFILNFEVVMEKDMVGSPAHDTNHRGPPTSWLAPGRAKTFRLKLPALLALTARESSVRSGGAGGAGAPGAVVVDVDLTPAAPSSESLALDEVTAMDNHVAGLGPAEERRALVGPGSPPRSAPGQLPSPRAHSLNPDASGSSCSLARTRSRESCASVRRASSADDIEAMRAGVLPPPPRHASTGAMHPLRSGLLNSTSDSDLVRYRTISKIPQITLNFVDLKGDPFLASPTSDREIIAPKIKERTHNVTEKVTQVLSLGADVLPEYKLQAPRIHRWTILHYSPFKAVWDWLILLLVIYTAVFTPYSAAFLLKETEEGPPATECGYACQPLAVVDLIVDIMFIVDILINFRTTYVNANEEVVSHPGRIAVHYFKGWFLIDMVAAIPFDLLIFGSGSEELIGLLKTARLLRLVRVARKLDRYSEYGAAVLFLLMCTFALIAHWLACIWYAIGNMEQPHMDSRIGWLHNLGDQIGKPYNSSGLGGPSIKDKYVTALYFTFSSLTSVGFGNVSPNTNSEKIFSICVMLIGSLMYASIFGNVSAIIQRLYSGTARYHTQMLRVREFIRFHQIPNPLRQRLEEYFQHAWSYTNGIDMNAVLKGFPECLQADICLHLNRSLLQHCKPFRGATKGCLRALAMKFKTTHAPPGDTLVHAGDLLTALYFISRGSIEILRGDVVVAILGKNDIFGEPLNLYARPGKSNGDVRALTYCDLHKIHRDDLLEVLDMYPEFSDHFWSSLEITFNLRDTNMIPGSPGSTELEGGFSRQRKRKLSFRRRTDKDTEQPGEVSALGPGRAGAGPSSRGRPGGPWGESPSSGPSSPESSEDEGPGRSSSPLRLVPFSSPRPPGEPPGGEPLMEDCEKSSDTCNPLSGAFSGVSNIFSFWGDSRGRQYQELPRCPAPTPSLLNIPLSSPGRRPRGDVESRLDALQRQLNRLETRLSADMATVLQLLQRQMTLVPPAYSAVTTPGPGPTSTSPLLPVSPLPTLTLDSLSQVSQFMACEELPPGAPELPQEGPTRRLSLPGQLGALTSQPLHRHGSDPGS

Row | motor dysfunction [1] | Ki (5HT2) [nM] | Ki (α1) [nM] | Compound | IC50 (hERG channel) [nM] | QTc intervals [3] | also measured
1 | no motor dysfunction was observed | 15 | 1.9 | CS(=O)(=O)c1ccc2c(c1)N(CCCN1CCC(C(N)=O)CC1)c1ccccc1S2 [Metopimazine, 1-[3-[2-(methylsulfonyl)-10H-phenothiazin-10-yl]propyl]-piperidine-4-carboxamide] | ~3000 | no significant increases in QTc intervals | overall increase in gastric emptying as compared to vehicle control ([2]; rats, pooling the 3 mg/kg and 10 mg/kg doses): about 20%
2 | – | 370 | 210 | CS(=O)(=O)c1ccc2c(c1)N(CCCN1CCC(C(=O)O)CC1)c1ccccc1S2 [Metopimazine-Acid, metopimazine acid] | > 10000 | no significant increases in QTc intervals | Ki (D3): > 100 nM
3 | no motor dysfunction was observed | – | – | C[C@@](Cc1ccc(O)c(O)c1)(NN)C(=O)O [S-Carbidopa, (25)-3-(3,4-dihydroxyphenyl)-2-hydrazino-2-methylpropanoic acid] | – | no significant increases in QTc intervals | motility index (MI), antral manometry ([1]; 1 mg/kg IV 15 min prior to meal, all three channels, p=0.05): robustly increased MI; motor dysfunction ([2]; rats administered carbidopa): no motor dysfunction was observed; solid gastric emptying compared to control rats ([2]; rats, initial results): improves solid gastric emptying
4 | – | – | – | CN(CCOc1ccc(NS(C)(=O)=O)cc1)CCc1ccc(NS(C)(=O)=O)cc1 [dofetilide] | – | QTc intervals are increased | incidence of ECG abnormalities ([3]; 0.3 mg/kg oral gavage): increases the incidence of premature ventricular contractions, T-wave abnormalities, and right bundle branch block
5 | – | – | – | Cl.NCCc1ccc(O)c(O)c1 [dopamine hydrochloride, Dopamine hydrochloride] | – | – | motility index (MI), antral manometry ([1]; 50 mg/canine IV immediately before meal, all channels, p=0.06): decreased MI
